# Source: ChEMBL document CHEMBL4385604, “Identification of Pyrrolo[2,3- d]pyrimidine-Based Derivatives as Potent and Orally Effective Fms-like Tyrosine Receptor Kinase 3 (FLT3) Inhibitors for Treating Acute Myelogenous Leukemia” (J Med Chem, 2019)
# What was measured:
# [1] = target: T1, Receptor-type tyrosine-protein kinase FLT3 (Homo sapiens, UniProt P36888)
# T1 sequence (P36888 whole entry): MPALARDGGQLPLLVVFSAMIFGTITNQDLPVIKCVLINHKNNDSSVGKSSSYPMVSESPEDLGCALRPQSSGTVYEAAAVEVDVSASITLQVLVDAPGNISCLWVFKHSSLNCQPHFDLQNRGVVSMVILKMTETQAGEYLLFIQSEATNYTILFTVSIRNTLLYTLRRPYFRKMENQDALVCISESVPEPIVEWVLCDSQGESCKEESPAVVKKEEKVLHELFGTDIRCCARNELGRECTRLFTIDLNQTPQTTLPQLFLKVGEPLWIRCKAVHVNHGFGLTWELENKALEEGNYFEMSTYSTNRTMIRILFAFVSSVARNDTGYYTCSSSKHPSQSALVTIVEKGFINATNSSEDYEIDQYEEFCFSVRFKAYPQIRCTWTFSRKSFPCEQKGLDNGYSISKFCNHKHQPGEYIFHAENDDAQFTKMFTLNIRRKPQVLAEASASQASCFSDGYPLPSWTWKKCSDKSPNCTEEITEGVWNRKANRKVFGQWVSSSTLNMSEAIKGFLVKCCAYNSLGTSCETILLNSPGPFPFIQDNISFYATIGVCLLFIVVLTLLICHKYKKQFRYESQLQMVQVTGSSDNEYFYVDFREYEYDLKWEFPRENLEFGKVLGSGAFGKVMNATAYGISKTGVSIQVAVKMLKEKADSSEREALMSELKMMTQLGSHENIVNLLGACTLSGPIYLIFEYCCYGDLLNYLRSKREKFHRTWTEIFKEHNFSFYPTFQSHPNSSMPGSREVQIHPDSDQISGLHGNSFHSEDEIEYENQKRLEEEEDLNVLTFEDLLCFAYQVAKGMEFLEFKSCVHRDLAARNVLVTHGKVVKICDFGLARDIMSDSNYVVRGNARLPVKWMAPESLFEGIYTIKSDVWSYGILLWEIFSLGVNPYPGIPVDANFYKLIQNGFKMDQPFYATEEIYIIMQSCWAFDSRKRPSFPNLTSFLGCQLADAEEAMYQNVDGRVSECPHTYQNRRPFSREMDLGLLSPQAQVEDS
# [2] = Elimination half-life in Sprague-Dawley rat at 5 mg/kg, po by LC-MS/MS analysis; format: ADME, organism-based; conditions: in vivo, read-out: beta t1/2 (converted)
# [3] = target: T1, Receptor-type tyrosine-protein kinase FLT3; test: Binding affinity to wild-type human partial length FLT3 (V592 to Y969 residues) expressed in Escherichia coli after 1 hr by qPCR analysis
# [4] = target: Receptor-type tyrosine-protein kinase FLT3 (Homo sapiens, UniProt P36888, ITD); test: Binding affinity to human partial length FLT3 ITD mutant expressed in Escherichia coli measured after 1 hr by qPCR analysis
# [5] = target: Receptor-type tyrosine-protein kinase FLT3 (Homo sapiens, UniProt P36888, D835H); test: Binding affinity to human partial length FLT3 D835H mutant (V592 to Y969 residues) expressed in Escherichia coli after 1 hr by qPCR analysis
# [6] = target: Receptor-type tyrosine-protein kinase FLT3 (Homo sapiens, UniProt P36888, K663Q); test: Binding affinity to human partial length FLT3 K663Q mutant (V592 to Y969 residues) expressed in Escherichia coli after 1 hr by qPCR analysis
# [7] = target: Receptor-type tyrosine-protein kinase FLT3 (Homo sapiens) (UniProt P36888); test: Inhibition of FLT3 autophosphorylation in human MV4-11 cells assessed as ratio of phosphorylated FLT3 to beta-actin level at 30 nM after 2 hrs by Western blot analysis relative to control; format: cell-based
# [8] = system: MV4-11; test: Inhibition of MAPK in human MV4-11 cells assessed as ratio of phosphorylated ERK to beta-actin level at 100 nM after 2 hrs by Western blot analysis relative to control; format: cell-based
# [9] = target: Receptor-type tyrosine-protein kinase FLT3 (Homo sapiens) (UniProt P36888); test: Inhibition of FLT3 autophosphorylation in human MOLM13 cells assessed as ratio of phosphorylated FLT3 to beta-actin level at 30 nM after 2 hrs by Western blot analysis relative to control; format: cell-based
# [10] = system: Receptor-type tyrosine-protein kinase FLT3 (Homo sapiens), P36888 [UNDEFINED MUTATION]; test: Inhibition of FLT3 ITD mutant in human MOLM13 cells assessed as ratio of phosphorylated STAT5 to beta-actin level at 100 nM after 2 hrs by Western blot analysis relative to control; format: cell-based
# [11] = system: MV4-11; test: Antitumour activity against human MV4-11 cells xenografted in NOD/SCID mouse assessed as tumour growth inhibition at 10 mg/kg, po qd for 18 days measured every two days during compound dosing by caliper method relative to control; format: functional; conditions: MV4-11, po, read-out: TGI
# [12] = system: MOLM-13; test: Antitumour activity against human MOLM13 cells xenografted in NOD/SCID mouse assessed as tumour growth inibition at 10 mg/kg, po qd for 10 days measured every two days during compound dosing by caliper method relative to control; format: functional; conditions: MOLM-13, po, read-out: TGI
# [13] = system: MOLM-13; test: Cell cycle arrest in human MOLM13 cells assessed as accumulation at G0/G1 phase at 10 nM after 24 hrs by propidium iodide staining-based flow cytometric analysis (reference value: 44.53%); format: functional
# [14] = system: MOLM-13; test: Cell cycle arrest in human MOLM13 cells assessed as accumulation at G2/M phase at 3 nM after 24 hrs by propidium iodide staining-based flow cytometric analysis (reference value: 13.52%); format: functional
# [15] = system: MV4-11; test: Cell cycle arrest in human MV4-11 cells assessed as accumulation at S phase at 10 nM after 24 hrs by propidium iodide staining-based flow cytometric analysis (reference value: 30.12%); format: functional
# [16] = system: MOLM-13; test: Induction of apoptosis in human MOLM13 cells assessed as viable cells at 1 nM after 48 hrs by Annexin V/propidium iodide staining based flow cytometry (reference value: 88.2%); format: functional; conditions: MOLM-13, 48 h, read-out: Activity
# [17] = system: MOLM-13; test: Cell cycle arrest in human MOLM13 cells assessed as accumulation at G2/M phase at 30 nM after 24 hrs by propidium iodide staining-based flow cytometric analysis (reference value: 13.52%); format: functional
# [18] = system: MOLM-13; test: Induction of apoptosis in human MOLM13 cells assessed as necrotic cells at 10 nM after 48 hrs by Annexin V/propidium iodide staining based flow cytometry (reference value: 0.29%); format: functional
# [19] = system: MOLM-13; test: Induction of apoptosis in human MOLM13 cells assessed as necrotic cells at 100 nM after 48 hrs by Annexin V/propidium iodide staining based flow cytometry (reference value: 0.29%); format: functional
# [20] = system: MV4-11; test: Induction of apoptosis in human MV4-11 cells assessed as late apoptotic cells at 100 nM after 48 hrs by Annexin V/propidium iodide staining based flow cytometry (reference value: 2.83%); format: functional
# [21] = system: MV4-11; test: Induction of apoptosis in human MV4-11 cells assessed as necrotic cells at 1 uM after 48 hrs by Annexin V/propidium iodide staining based flow cytometry (reference value: 0.06%); format: functional
# [22] = system: MOLM-13; test: animal or person; conditions: Mus musculus, MOLM-13, po, read-out: TGI
# Description: Antitumour activity against human MOLM13 cells xenografted in NOD/SCID mouse assessed as tumour growth inibition at 3 mg/kg, po qd for 10 days measured every two days during compound dosing by caliper method relative to control
compound,measurement,setting,value
C=CCn1cc(-c2ccc(NC(=O)Nc3cc(C(C)(C)C)on3)cc2)c2c(N)ncnc21,IC50,[1],7 nM
same,half-life,[2],2.06 h
same,Kd,[3],4.37 nM
same,Kd,[4],20.5 nM
same,Kd,[5],5.14 nM
same,Kd,[6],2.48 nM
same,fold change (FC),[7],0
same,fold change (FC),[8],0
same,fold change (FC),[9],0
same,fold change (FC),[10],0
same,inhibition in vivo at 10 mg/kg,[11],100%
same,inhibition in vivo at 10 mg/kg,[12],96%
same,Activity,[13],94.62%
same,Activity,[14],4.55%
same,Activity,[15],2.06%
same,viability at 0.001 µM,[16],85%
same,Activity,[17],2.47%
same,Activity,[18],0.12%
same,Activity,[19],0.19%
same,Activity,[20],12.7%
same,Activity,[21],0.32%
same,inhibition in vivo at 3 mg/kg,[22],94.5%
